Measured values: patent US20260272936A1, “TREATMENT OF CANCER WITH A PARG INHIBITOR” (858 Therapeutics, Inc., priority 2023, published 2026)

System: T026OV ovarian cancer patient-derived organoid
Assay: 7-day organoid colony formation, ATP content (Cell Titer Glo 3D)
Format: cell-based, human
Conditions: T026OV PDO, 7 days
Source text: The FU-97 (Cat #JCRB1074) human gastric cancer cell line and the Kuramochi (Cat #JCRB0098) and RMUG-S(Cat #IFO50320) human ovarian cancer cell lines were obtained from the National Institutes of Biomedical Innovation, Health and Nutrition's Japanese Collection of Research Bioresources (JCRB) (Ibaraki City, Osaka, Japan). The HCC1419 (Cat #CRL-2326) and HCC1428 (Cat #CRL-2327) human breast cancer cell lines and the NCI-H1650 (Cat #CRL-5883) and NCI-H1792 (Cat #CRL-5895) non-small cell lung cancer cell lines were obtained from ATCC (Manassas, Virginia, USA). The human gastric cancer cell lines GCIY (Cat #RCB0555) and SNU601 (Cat #CSC-C9686L) were obtained from the Riken Bioresource Research Center (Tsukuba, Ibaraki, Japan) and Creative Bioarray (Shirley, NY, USA), respectively. The T025OV ovarian cancer organoid model was developed from a patient-derived xenograft (PDX) model, which was developed from primary serous ovarian carcinoma cells obtained from Discovery Life Sciences (Huntsville, AL, USA, SN #350627149). T026OV organoids were developed from PDX cells obtained from The Jackson Laboratory (Bar Harbor, ME, USA, Cat #TM00335).
T025OV and T026OV PDOs were cultured in PDO complete media on a thin layer of growth-factor reduced Matrigel (Corning, Glendale, AZ, USA Cat #356231). […]
Compound 1 IC50 values for inhibition of organoid colony formation were determined by measuring ATP levels after 7 days of treatment utilizing Cell Titer Glo 3D reagent (Promega, Madison, WI, USA Cat #G9683). […] Luminescence values (RLU) were read-out using a Clariostar plate reader (BMG Labtech, Cary, NC). […]

[2H]C([2H])(c1cnn(C)c1)N1C(=O)c2cc(S(=O)(=O)NC3(C)CC3)ccc2N2C1=NC[C@H]2C [Compound 1, (R)-1-methyl-4-((1-methyl-1H-pyrazol-4-yl)methyl-d2)-N-(1-methylcyclopropyl)-5-oxo-1,2,4,5-tetrahydroimidazo[1,2-a]quinazoline-7-sulfonamide]
IC50 (Homo sapiens, 168 h, geometric mean, read-out: IC50 inhibition of ATP content): 213 nM | IC90 (Homo sapiens, 168 h, geometric mean, read-out: IC90 inhibition of ATP content): 567 nM | maximum reduction in cellular ATP content: approximately 50%
